Laboratory results reported in PubChem BioAssay AID330 (DTP/NCI, 2004).
“And” between values parts separate entries of the source, which are not always exact repeats. Identical values can stand only once. Toxic doses and inconclusive results are not listed. How the source made its calls: active means survival T/C of 150% or more; inactive means T/C below 125% in these data.

Tested on: P388 leukemia ip, CD2F1 mice, survival T/C
Experiment: NCI In Vivo Anticancer Drug Screen. Data for tumor model P388 Leukemia (intraperitoneal) in CD2F1 (CDF1) mice
Conditions: endpoint: median survival time, higher = longer survival
Outline: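 Mice carrying the transplanted tumor received test compound or vehicle. Survival was recorded in each group, and the value is the treated-group measurement divided by that of the vehicle-treated control group.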

[1] = dose: 100.0 mg/kg/injection, schedule: Q01DX009 (ip), vehicle: Klucel (hydroxypropylcellulose) (HPC)
[2] = dose: 200.0 mg/kg/injection, schedule: Q01DX009 (ip), vehicle: Klucel (hydroxypropylcellulose) (HPC)
[3] = dose: 60.0 mg/kg/injection, schedule: Q01DX005 (ip), vehicle: Klucel (hydroxypropylcellulose) (HPC)
[4] = dose: 120.0 mg/kg/injection, schedule: Q01DX005 (ip), vehicle: Klucel (hydroxypropylcellulose) (HPC)
[5] = dose: 240.0 mg/kg/injection, schedule: Q01DX005 (ip), vehicle: Klucel (hydroxypropylcellulose) (HPC)
[6] = dose: 60.0 mg/kg/injection, schedule: Q01DX005 (ip), vehicle: saline with Tween-80
[7] = dose: 120.0 mg/kg/injection, schedule: Q01DX005 (ip), vehicle: saline with Tween-80
[8] = dose: 240.0 mg/kg/injection, schedule: Q01DX005 (ip), vehicle: saline with Tween-80
[9] = dose: 100.0 mg/kg/injection, schedule: Q01DX009 (ip), vehicle: saline with Tween-80
[10] = dose: 50.0 mg/kg/injection, schedule: Q01DX009 (ip), vehicle: Klucel (hydroxypropylcellulose) (HPC)

Measured: T/C

O=[N+]([O-])c1ccc(N/N=C/c2ccnc3ccccc23)cc1
inactive: [1] 95 % of control | [2] 86 % of control | dose: 400.0 mg/kg/injection, schedule: Q01DX009 (ip), vehicle: Klucel (hydroxypropylcellulose) (HPC) 95 % of control

CCOC(=O)C(Cc1ccc(N(CCCl)CCCl)cc1)NC(=O)C(Cc1ccc([N+](=O)[O-])cc1)NC(C)=O (stereo not drawn)
inactive: dose: 5.0 mg/kg/injection, schedule: Q04DX003 (ip), vehicle: water 91 % of control | dose: 10.0 mg/kg/injection, schedule: Q04DX003 (ip), vehicle: water 91 % of control | dose: 20.0 mg/kg/injection, schedule: Q04DX003 (ip), vehicle: water 90 % of control | dose: 40.0 mg/kg/injection, schedule: Q04DX003 (ip), vehicle: other 88 % of control | dose: 40.0 mg/kg/injection, schedule: Q04DX003 (ip), vehicle: water 98 % of control | dose: 80.0 mg/kg/injection, schedule: Q04DX003 (ip), vehicle: other 91 % of control | dose: 100.0 mg/kg/injection, schedule: Q04DX003 (ip), vehicle: other 90 % of control | dose: 160.0 mg/kg/injection, schedule: Q04DX003 (ip), vehicle: other 94 % of control | dose: 200.0 mg/kg/injection, schedule: Q04DX003 (ip), vehicle: other 102 % of control | dose: 400.0 mg/kg/injection, schedule: Q04DX003 (ip), vehicle: other 112 % of control

O=[N+]([O-])/C=C/c1c[nH]c2c1ccc1ccccc12
inactive: dose: 100.0 mg/kg/injection, schedule: Q01DX005 (ip), vehicle: saline with Tween-80 86 % of control | dose: 200.0 mg/kg/injection, schedule: Q01DX005 (ip), vehicle: saline with Tween-80 94 % of control

CC1=N/C(=C\C=C\c2ccccc2)C(=O)O1
inactive: dose: 50.0 mg/kg/injection, schedule: Q01DX005 (ip), vehicle: saline 104 % of control | dose: 100.0 mg/kg/injection, schedule: Q01DX005 (ip), vehicle: saline 101 % of control | dose: 200.0 mg/kg/injection, schedule: Q01DX005 (ip), vehicle: saline 103 % of control

C=CCOc1cc(=O)[nH]c2ccccc12
inactive: [3] 100 % of control | [4] 97 % of control | [5] 91 % of control

CC(N)C(=O)NC1C(O)OC(CO)C(O)C1O (stereo not drawn)
inactive: dose: 25.0 mg/kg/injection, schedule: Q01DX009 (ip), vehicle: water 101 % of control | dose: 50.0 mg/kg/injection, schedule: Q01DX009 (ip), vehicle: water 104 % of control | dose: 100.0 mg/kg/injection, schedule: Q01DX009 (ip), vehicle: water 111 % of control | dose: 200.0 mg/kg/injection, schedule: Q01DX009 (ip), vehicle: water 104 % of control | dose: 400.0 mg/kg/injection, schedule: Q01DX009 (ip), vehicle: water 101 % of control | dose: 800.0 mg/kg/injection, schedule: Q01DX009 (ip), vehicle: water 93 % of control

CCC(=O)OCC(=O)[C@]1(O)Cc2c(O)c3c(c(O)c2[C@@H](OC2CC(N)C(O)C(C)O2)C1)C(=O)c1c(OC)cccc1C3=O (stereo partly drawn)
inactive: dose: 8.0 mg/kg/injection, schedule: Q01DX009 (ip), vehicle: saline 114 % of control
active: dose: 0.25 mg/kg/injection, schedule: Q01DX009 (ip), vehicle: saline 163 % of control | dose: 0.5 mg/kg/injection, schedule: Q01DX009 (ip), vehicle: saline sonified 172 % of control | dose: 0.5 mg/kg/injection, schedule: Q01DX009 (ip), vehicle: saline 174 % of control | dose: 1.0 mg/kg/injection, schedule: Q01DX009 (ip), vehicle: saline sonified 168 % of control | dose: 1.0 mg/kg/injection, schedule: Q01DX009 (ip), vehicle: saline 225 % of control | dose: 2.0 mg/kg/injection, schedule: Q01DX009 (ip), vehicle: saline sonified 172 % of control | dose: 2.0 mg/kg/injection, schedule: Q01DX009 (ip), vehicle: saline 252 % of control

O=CNC(Cc1ccc(N(CCCl)CCCl)cc1)C(=O)O (stereo not drawn)
active: dose: 6.25 mg/kg/injection, schedule: Q01DX009 (ip), vehicle: saline sonified 159 % of control | dose: 6.6 mg/kg/injection, schedule: Q04DX003 (ip), vehicle: saline 170 % of control | dose: 10.0 mg/kg/injection, schedule: Q04DX003 (ip), vehicle: saline 160 % of control | dose: 12.5 mg/kg/injection, schedule: Q01DX009 (ip), vehicle: saline sonified 168 % of control | dose: 15.0 mg/kg/injection, schedule: Q04DX003 (ip), vehicle: saline 170 % of control | dose: 25.0 mg/kg/injection, schedule: Q01DX009 (ip), vehicle: saline sonified 213 % of control

COC(=O)C(CSCc1ccccc1)NC(=O)CCNC(=O)OCc1ccccc1 (stereo not drawn)
inactive: dose: 25.0 mg/kg/injection, schedule: Q01DX009 (ip), vehicle: other 103 % of control | dose: 50.0 mg/kg/injection, schedule: Q01DX009 (ip), vehicle: other 103 % of control | dose: 100.0 mg/kg/injection, schedule: Q01DX009 (ip), vehicle: other 96 % of control | dose: 200.0 mg/kg/injection, schedule: Q01DX009 (ip), vehicle: other 90 % of control | dose: 400.0 mg/kg/injection, schedule: Q01DX009 (ip), vehicle: other 97 % of control

CS(=O)(=O)C12CCCN1C(=O)C1CCCN1C2=O (stereo not drawn)
inactive: dose: 50.0 mg/kg/injection, schedule: Q01DX009 (ip), vehicle: saline 99 % of control | dose: 100.0 mg/kg/injection, schedule: Q01DX009 (ip), vehicle: saline 102 % of control | dose: 200.0 mg/kg/injection, schedule: Q01DX009 (ip), vehicle: saline 90 % of control

c1cc(Cc2ccsc2)cs1
inactive: [6] 104 % of control | [7] 104 % of control | [8] 106 % of control

CC1=C(C)C(=O)C2=C(OCCCO2)C1=O
inactive: dose: 15.0 mg/kg/injection, schedule: Q01DX005 (ip), vehicle: Klucel (hydroxypropylcellulose) (HPC) 98 % of control | dose: 30.0 mg/kg/injection, schedule: Q01DX005 (ip), vehicle: Klucel (hydroxypropylcellulose) (HPC) 96 % of control | [3] 98 % of control

CC12C=C(C(=O)c3ccccc3)C(CC1)C2(C)C (stereo not drawn)
inactive: [9] 100 % of control | dose: 200.0 mg/kg/injection, schedule: Q01DX009 (ip), vehicle: saline with Tween-80 95 % of control | dose: 400.0 mg/kg/injection, schedule: Q01DX009 (ip), vehicle: saline with Tween-80 90 % of control

COc1cccc(C2SCC(=O)N2c2nncs2)c1 (stereo not drawn)
inactive: [6] 100 % of control | [7] 97 % of control | [8] 104 % of control

CC(CO)c1cc2c(cc1O)[C@@]1(C)CCCC(C)(C)[C@@H]1CC2 (stereo partly drawn)
inactive: dose: 25.0 mg/kg/injection, schedule: Q01DX005 (ip), vehicle: Klucel (hydroxypropylcellulose) (HPC) 99 % of control | dose: 50.0 mg/kg/injection, schedule: Q01DX005 (ip), vehicle: Klucel (hydroxypropylcellulose) (HPC) 102 % of control | dose: 100.0 mg/kg/injection, schedule: Q01DX005 (ip), vehicle: Klucel (hydroxypropylcellulose) (HPC) 89 % of control | dose: 200.0 mg/kg/injection, schedule: Q01DX005 (ip), vehicle: Klucel (hydroxypropylcellulose) (HPC) 89 % of control and 93 % of control | dose: 400.0 mg/kg/injection, schedule: Q01DX005 (ip), vehicle: Klucel (hydroxypropylcellulose) (HPC) 88 % of control

Cc1cc(=O)n2c(nc3ccccc32)s1
inactive: [10] 109 % of control | [1] 96 % of control | [2] 109 % of control

CCCCOC(=O)c1[nH]cnc1/N=N\N(C)C
inactive: dose: 25.0 mg/kg/injection, schedule: Q01DX009 (ip), vehicle: saline with Tween-80 120 % of control | [9] 105 % of control | dose: 100.0 mg/kg/injection, schedule: Q04DX003 (ip), vehicle: saline with Tween-80 108 % of control | dose: 132.0 mg/kg/injection, schedule: Q04DX003 (ip), vehicle: saline with Tween-80 100 % of control | dose: 300.0 mg/kg/injection, schedule: Q04DX003 (ip), vehicle: saline with Tween-80 90 % of control | dose: 400.0 mg/kg/injection, schedule: Q04DX003 (ip), vehicle: saline with Tween-80 100 % of control

CCOC(=O)/C=C(\C)NCCSSCCN/C(C)=C/C(=O)OCC
inactive: [10] 100 % of control | [1] 97 % of control | [2] 90 % of control

Nc1nc(Cc2ccccc2)cc(-c2cc(Cc3ccccc3)nc(N)n2)n1
inactive: [3] 90 % of control | [4] 95 % of control | [5] 97 % of control

CCOc1c(N=Nc2ccc(O)cc2)c(C)nn1C(N)=S
inactive: dose: 15.0 mg/kg/injection, schedule: Q01DX005 (ip), vehicle: Klucel + Tween-80 99 % of control | dose: 30.0 mg/kg/injection, schedule: Q01DX005 (ip), vehicle: Klucel + Tween-80 101 % of control
